Where a name gives a salt, the structure may show the parent alone.
Target: T1, human Glucose-dependent Insulinotropic Polypeptide Receptor (hGIPR) (Homo sapiens, UniProt P48546)
T1 sequence (P48546 22-466): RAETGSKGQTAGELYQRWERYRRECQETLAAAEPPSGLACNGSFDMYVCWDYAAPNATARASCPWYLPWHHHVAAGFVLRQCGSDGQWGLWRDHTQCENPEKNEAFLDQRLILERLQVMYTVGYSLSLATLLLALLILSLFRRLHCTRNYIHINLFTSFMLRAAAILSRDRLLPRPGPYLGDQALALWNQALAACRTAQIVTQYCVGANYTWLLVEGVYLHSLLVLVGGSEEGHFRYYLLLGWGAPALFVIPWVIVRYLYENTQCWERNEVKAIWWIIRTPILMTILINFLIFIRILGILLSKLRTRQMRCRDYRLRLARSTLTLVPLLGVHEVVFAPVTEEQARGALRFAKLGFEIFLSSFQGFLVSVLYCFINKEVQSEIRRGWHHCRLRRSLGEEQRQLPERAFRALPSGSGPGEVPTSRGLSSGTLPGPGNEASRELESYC
Test: Functional in vitro GIPR antagonist potency assay (cAMP HTRF, CHO-K1 cells stably expressing hGIPR, hGIP stimulation at about EC80)
Format: cell-based
Conditions: geometric mean, hGIP at estimated EC80, examples marked ^2: overall geometric mean of multiple forms (including salts) tested
Method: Example AA. Functional In Vitro GIPR Antagonist Potency Assay
The functional in vitro antagonist potency for test compounds was determined by monitoring intracellular cyclic adenosine monophosphate (cAMP) levels in Chinese hamster ovary (CHO)—K1 cells stably expressing the human Glucose-dependent Insulinotropic Polypeptide Receptor (hGIPR). Following agonist activation, hGIPR associates with the G-protein complex causing the Gαs subunit to exchange bound guanosine diphosphate (GDP) for guanosine triphosphate (GTP), followed by dissociation of the Gαs-GTP complex. The activated Gas subunit can couple to downstream effectors to regulate the levels of second messengers or cAMP within the cell. Thereby, determination of intracellular cAMP levels allows for pharmacological characterization. Intracellular cAMP levels are quantitated using a homogenous assay utilizing the Homogeneous Time Resolved Fluorescence (HTRF) technology from Perkin Elmer. […] The two entities compete for binding to a monoclonal anti-cAMP antibody labeled with cryptate. The specific signal is inversely proportional to the concentration of cAMP in the cells.
Test compounds were solubilized to a concentration of 30 mM in 100% dimethyl sulfoxide (DMSO). An 11-point dilution series using 1 in 3.162-fold serial dilutions was created in 100% DMSO with a top concentration of 8 mM. The serially diluted compound was spotted with an Echo Acoustic liquid handler (Beckman Coulter) into a 384-well assay plate (Corning, Cat No. 3824) at 50 nL/well with duplicate points at each concentration, at a 200× final assay concentration (FAC). The final compound concentration range in the assay was 40 μM to […], with a final DMSO concentration of 0.5%.
Frozen assay-ready vials (at 1×10^7 cells/vial) of CHO-K1 cells stably expressing the Gs-coupled human GIPR receptor (Eurofins, DiscoverX, Cat No. 95-0146C2) were thawed, counted, and resuspended in assay buffer consisting of Hank's Balanced Salt Solution (HBSS, Lonza Cat No. 10-527) containing 20 mM (4-(2-hydroxyethyl)-1-piperazineethanesulfonic acid (HEPES, Lonza, Cat No. 17-737E), 0.1% bovine serum albumin (BSA, Sigma, Cat No. A7979), and 200 μM 3-isobutyl-1-methylxanthine (IBMX, Sigma, Cat No. 15879) at a density of 4×10^5 cells/mL. Cells were added to assay plate (5 μL/well of 4×10^5 cells/mL stock for 2,000 cells/well final) containing 50 nL of 200× FAC test compound, and incubated at 37° C. (95% O2: 5% CO2) for 2 hours, with micro-clime lids (Labcyte, Cat No. LLS-0310). Following the 2-hour cell and compound incubation, a stimulation mix comprised of hGIPR agonist human glucose-dependent insulinotropic polypeptide (hGIP, full length, Sigma Cat No. G2269) in assay buffer/0.1% DMSO was added to the assay plate (5 μL/well) at an estimated EC80 FAC (based on previous hGIP agonist curves) and incubated for another 30 minutes with micro-clime lids at 37° C. (95% O2: 5% CO2), after which intracellular cAMP levels were quantified as per Perkin Elmer's protocol (5 μL of d2 and then 5 μL cryptate, incubated for 1 hour at room temperature). Emission spectra of samples were measured on a Pherastar plate reader (BMG Labtech Inc) using a HTRF protocol (excitation, 320 nm; emission, 665 nm/620 nm).
(95% O2: 5% CO2), with a micro-clime lid. Following the 2-hour cell and DMSO incubation, a hGIP concentration response curve at 2× FAC (12-point curve using 1 in 3 serial dilutions, with triplicate points at each concentration, 100 nM final top concentration) in assay buffer/1% DMSO was added (5 μL/well) and incubated for a further 30 minutes with a micro-clime lid at 37° C. (95% O2: 5% CO2), after which intracellular cAMP levels were quantified and samples measured as described previously. Experiments passed quality control if the agonist concentration used for stimulation fell between the on-the-day EC50-EC90. […]

Row | IC50 | Structure (SMILES)
1 | 160 nM | CC(C)c1ccc(NC(=O)N2CCC[C@@H]2C(=O)Nc2ccc3cc(C(=O)O)ccc3c2)cc1 (racemic) [Example 41, 6-[(1-{[4-(propan-2-yl)phenyl]carbamoyl}prolyl)amino]naphthalene-2-carboxylic acid]
2 | 6.8 nM | CC(C)c1ccc(NC(=O)N2CCC[C@@H]2C(=O)Nc2ccc(-c3ccc(C(=O)O)cc3)cc2)cc1 (racemic) [Example 44, 4′-[(1-{[4-(propan-2-yl)phenyl]carbamoyl}prolyl)amino][1,1′-biphenyl]-4-carboxylic acid]
3 | 4.6 nM | CC[C@H]1CCN(C(=O)Nc2ccc(C(C)C)cc2)[C@H]1C(=O)Nc1ccc(-c2ccc(C(=O)O)cc2)cc1 (single isomer, unassigned) [Example 165, 4′-{[(3R)-3-ethyl-1-{[4-(propan-2-yl)phenyl]carbamoyl}-L-prolyl]amino}[1,1′-biphenyl]-4-carboxylic acid or 4′-{[(3S)-3-ethyl-1-{[4-(propan-2-yl)phenyl]carbamoyl}-D-prolyl]amino}[1,1′-biphenyl]-4-carboxylic acid]
4 | 5.7 nM | CC[C@@H]1CCN(C(=O)Nc2ccc(C(C)C)cc2)[C@H]1C(=O)Nc1ccc(-c2ccc(C(=O)O)cc2)cc1 (single isomer, unassigned) [Example 166, 4′-{[(3R)-3-ethyl-1-{[4-(propan-2-yl)phenyl]carbamoyl}-D-prolyl]amino}[1,1′-biphenyl]-4-carboxylic acid or 4′-{[(3S)-3-ethyl-1-{[4-(propan-2-yl)phenyl]carbamoyl}-L-prolyl]amino}[1,1′-biphenyl]-4-carboxylic acid]
5 | 140 nM | O=C(O)[C@@H]1CCc2nc(NC(=O)[C@H]3CCCN3C(=O)Nc3ccc(C(F)(F)F)cc3)ccc2C1 (single isomer, unassigned) [Example 217, 2-[(1-{[4-(trifluoromethyl)phenyl]carbamoyl}-D-prolyl)amino]-5,6,7,8-tetrahydroquinoline-6-carboxylic acid, DIAST-1]
6 | 33 nM | O=C(O)[C@@H]1CCc2nc(NC(=O)[C@H]3CCCN3C(=O)Nc3ccc(C(F)(F)F)cc3)ccc2C1 (single isomer, unassigned) [Example 218, 2-[(1-{[4-(trifluoromethyl)phenyl]carbamoyl}-D-prolyl)amino]-5,6,7,8-tetrahydroquinoline-6-carboxylic acid, DIAST-2]
7 | 47 nM | O=C(O)[C@@H]1CCc2nc(NC(=O)[C@H]3CCCN3C(=O)Nc3ccc(C(F)(F)F)c(F)c3)ccc2C1 (single isomer, unassigned) [Example 220, 2-[(1-{[3-fluoro-4-(trifluoromethyl)phenyl]carbamoyl}-D-prolyl)amino]-5,6,7,8-tetrahydroquinoline-6-carboxylic acid, DIAST-1]
8 | 11 nM | O=C(O)[C@@H]1CCc2nc(NC(=O)[C@H]3CCCN3C(=O)Nc3ccc(C(F)(F)F)c(F)c3)ccc2C1 (single isomer, unassigned) [Example 221, 2-[(1-{[3-fluoro-4-(trifluoromethyl)phenyl]carbamoyl}-D-prolyl)amino]-5,6,7,8-tetrahydroquinoline-6-carboxylic acid, DIAST-2]
9 | 81 nM | Cc1cc(NC(=O)N2CCC[C@@H]2C(=O)Nc2ccc3c(n2)CC[C@@H](C(=O)O)C3)ccc1C(F)(F)F (single isomer, unassigned) [Example 226, 2-[(1-{[3-methyl-4-(trifluoromethyl)phenyl]carbamoyl}-D-prolyl)amino]-5,6,7,8-tetrahydroquinoline-6-carboxylic acid, DIAST-1]
10 | 53 nM | Cc1cc(NC(=O)N2CCC[C@@H]2C(=O)Nc2ccc3c(n2)CC[C@@H](C(=O)O)C3)ccc1C(F)(F)F (single isomer, unassigned) [Example 227, 2-[(1-{[3-methyl-4-(trifluoromethyl)phenyl]carbamoyl}-D-prolyl)amino]-5,6,7,8-tetrahydroquinoline-6-carboxylic acid, DIAST-2]
11 | 36 nM | CC(C)c1ccc(NC(=O)N2CCC[C@@H]2C(=O)Nc2ccc3c(n2)CC[C@@H](C(=O)O)C3)cc1F (single isomer, unassigned) [Example 228, 2-[(1-{[3-fluoro-4-(propan-2-yl)phenyl]carbamoyl}-D-prolyl)amino]-5,6,7,8-tetrahydroquinoline-6-carboxylic acid, trifluoroacetate salt, DIAST-1]
12 | 11 nM | CC(C)c1ccc(NC(=O)N2CCC[C@@H]2C(=O)Nc2ccc3c(n2)CC[C@@H](C(=O)O)C3)cc1F (single isomer, unassigned) [Example 229, 2-[(1-{[3-fluoro-4-(propan-2-yl)phenyl]carbamoyl}-D-prolyl)amino]-5,6,7,8-tetrahydroquinoline-6-carboxylic acid, trifluoroacetate salt, DIAST-2]
13 | 16 nM | CC(C)c1ccc(NC(=O)N2CCC[C@@H]2C(=O)Nc2ccc(-c3ccc(C(=O)O)nc3)cc2)cc1 [Example 1, Ammonium 5-{4-[(1-{[4-(propan-2-yl)phenyl]carbamoyl}-D-prolyl)amino]phenyl}pyridine-2-carboxylate]
14 | 74 nM | CC(C)c1ccc(NC(=O)N2CCC[C@@H]2C(=O)Nc2ccc(-c3ccc(C(=O)O)cn3)cc2)cc1 [Example 2, 6-{4-[(1-{[4-(Propan-2-yl)phenyl]carbamoyl}-D-prolyl)amino]phenyl}pyridine-3-carboxylic acid]
15 | 17 nM | CC(C)c1ccc(NC(=O)N2CCC[C@@H]2C(=O)Nc2ccc(-c3cccc(C(=O)O)c3)cc2)cc1 [Example 3, 4′-[(1-{[4-(Propan-2-yl)phenyl]carbamoyl}-D-prolyl)amino][1,1′-biphenyl]-3-carboxylic acid]
16 | 4.1 nM | CC(C)c1ccc(NC(=O)N2CCC[C@@H]2C(=O)Nc2ccc(-c3ccc(C(=O)O)cc3)cc2)cc1 [Example 4, 4′-[(1-{[4-(Propan-2-yl)phenyl]carbamoyl}-D-prolyl)amino][1,1′-biphenyl]-4-carboxylic acid]

Row | Structure (SMILES) | IC50
17 | CC(C)c1ccc(NC(=O)N2CC[C@H](C)[C@@H]2C(=O)Nc2ccc(-c3ccc(C(=O)O)cc3)cc2)cc1 (single isomer, unassigned) [Example 34, 4′-{[(3S)-3-Methyl-1-{[4-(propan-2-yl)phenyl]carbamoyl}-D-prolyl]amino}[1,1′-biphenyl]-4-carboxylic acid or 4′-{[(3R)-3-Methyl-1-{[4-(propan-2-yl)phenyl]carbamoyl}-L-prolyl]amino}[1,1′-biphenyl]-4-carboxylic acid] | 10 nM
18 | CC(C)c1ccc(NC(=O)N2CC[C@@H](C)[C@@H]2C(=O)Nc2ccc(-c3ccc(C(=O)O)cc3)cc2)cc1 (single isomer, unassigned) [Example 35, 4′-{[(3R)-3-Methyl-1-{[4-(propan-2-yl)phenyl]carbamoyl}-D-prolyl]amino}[1,1′-biphenyl]-4-carboxylic acid or 4′-{[(3S)-3-Methyl-1-{[4-(propan-2-yl)phenyl]carbamoyl}-L-prolyl]amino}[1,1′-biphenyl]-4-carboxylic acid] | 4.6 nM
